Experimental data reported in ChEMBL document CHEMBL1158488, “Investigation of the relative cellular permeability of DNA-binding pyrrole-imidazole polyamides” (J Med Chem, 2009).

Key:
[1] = target: T1, Glucocorticoid receptor (Homo sapiens, UniProt P04150)
T1 sequence (P04150 whole entry): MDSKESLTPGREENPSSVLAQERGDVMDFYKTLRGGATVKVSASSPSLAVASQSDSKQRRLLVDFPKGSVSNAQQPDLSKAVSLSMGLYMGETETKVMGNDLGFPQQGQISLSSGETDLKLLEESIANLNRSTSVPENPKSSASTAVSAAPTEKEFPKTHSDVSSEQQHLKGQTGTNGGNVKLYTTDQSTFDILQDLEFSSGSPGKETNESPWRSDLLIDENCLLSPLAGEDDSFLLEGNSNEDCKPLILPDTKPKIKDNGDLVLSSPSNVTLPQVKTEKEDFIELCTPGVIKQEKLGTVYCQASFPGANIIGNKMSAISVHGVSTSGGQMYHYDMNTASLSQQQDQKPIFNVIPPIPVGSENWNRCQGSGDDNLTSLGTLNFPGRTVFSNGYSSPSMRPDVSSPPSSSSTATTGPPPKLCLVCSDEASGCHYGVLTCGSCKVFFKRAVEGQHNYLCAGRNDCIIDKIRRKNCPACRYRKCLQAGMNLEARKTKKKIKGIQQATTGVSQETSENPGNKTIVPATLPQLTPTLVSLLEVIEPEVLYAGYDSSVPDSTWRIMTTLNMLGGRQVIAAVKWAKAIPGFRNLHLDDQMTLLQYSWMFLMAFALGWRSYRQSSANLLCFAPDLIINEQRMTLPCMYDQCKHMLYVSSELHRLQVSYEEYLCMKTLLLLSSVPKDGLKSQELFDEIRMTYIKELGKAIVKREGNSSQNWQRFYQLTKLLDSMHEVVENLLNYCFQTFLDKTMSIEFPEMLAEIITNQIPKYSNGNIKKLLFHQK
Description: Displacement of fluormone from human recombinant glucocorticoid receptor ligand binding domain by fluorescence polarization assay

[2] = tested on: glucocorticoid receptor; assay: Cell permeability in human HeLa cells assessed as glucocorticoid receptor-dependent induction of luciferase activity at 0.6 uM after 40 hrs by GAL4-responsive luciferase reporter gene assay relative to control; settings: HeLa cells with GAL4-responsive luciferase reporter
[3] = tested on: HeLa; assay: Cell permeability in human HeLa cells assessed as glucocorticoid receptor-dependent induction of luciferase activity after 40 hrs by GAL4-responsive luciferase reporter gene assay
[4] = tested on: glucocorticoid receptor; assay: Cell permeability in human HeLa cells assessed as glucocorticoid receptor-dependent induction of luciferase activity at 6 uM after 40 hrs by GAL4-responsive luciferase reporter gene assay relative to control; settings: HeLa cells with GAL4-responsive luciferase reporter
[5] = tested on: MCF7; assay: Cell permeability in human MCF7 cells assessed as glucocorticoid receptor-dependent induction of luciferase activity after 40 hrs by GAL4-responsive luciferase reporter gene assay; settings: MCF7, 40 h
[6] = tested on: glucocorticoid receptor; assay: Cell permeability in human MCF7 cells assessed as glucocorticoid receptor-dependent induction of luciferase activity at 1 uM after 40 hrs by GAL4-responsive luciferase reporter gene assay relative to control; settings: MCF7 cells with GAL4-responsive luciferase reporter
[7] = target: Nucleic Acid

Structure (SMILES) | IC50 [1] [µM] | other results
C[C@H]1C[C@@H]2[C@H]3CCC4=CC(=O)C=C[C@@]4(C)[C@]3(F)[C@H](O)C[C@@]2(C)[C@]1(O)C(=O)CSCCNC(=S)NCCNC(=O)c1cc(NC(=O)c2cc(NC(=O)c3cc(NC(=O)c4cc(NC(=O)CCCNC(=O)c5cc(NC(=O)c6nccn6C)cn5C)cn4C)cn3C)cn2C)cn1C | 0.021 | –
CC(=O)NCCNC(=S)NCCSCC(=O)[C@@]1(O)[C@H](C)C[C@H]2[C@@H]3CCC4=CC(=O)C=C[C@]4(C)[C@@]3(F)[C@@H](O)C[C@@]21C | 0.0098 | fold induction at 40 h, 0.6 µM [2]: 3600; EC50 [3]: 0.29 µM
C[C@H]1C[C@@H]2[C@H]3CCC4=CC(=O)C=C[C@@]4(C)[C@]3(F)[C@H](O)C[C@@]2(C)[C@]1(O)C(=O)NCCNC(=O)c1cc(NC(=O)c2nccn2C)cn1C | 0.46 | EC50 [3]: 4.2 µM
C[C@@H]1C[C@H]2[C@@H]3CCC4=CC(=O)C=C[C@]4(C)[C@@]3(F)[C@@H](O)C[C@]2(C)[C@@]1(O)C(=O)CSCCNC(=S)NCCCN(C)CCCNC(=O)CCNC(=O)c1cc(NC(=O)c2nccn2C)cn1C | 0.0085 | –
C[C@@H]1C[C@H]2[C@@H]3CCC4=CC(=O)C=C[C@]4(C)[C@@]3(F)[C@@H](O)C[C@]2(C)[C@@]1(O)C(=O)CSCCNC(=S)NCCCN(C)CCCNC(=O)CCNC(=O)c1cc(NC(=O)c2cc(NC(=O)c3cc(NC(=O)c4cc(NC(=O)CCCNC(=O)c5cc(NC(=O)c6nccn6C)cn5C)cn4C)cn3C)cn2C)cn1C | 0.022 | –
C[C@H]1C[C@@H]2[C@H]3CCC4=CC(=O)C=C[C@@]4(C)[C@]3(F)[C@H](O)C[C@@]2(C)[C@]1(O)C(=O)CSCCNC(=S)NCCNC(=O)c1cc(NC(=O)c2cc(NC(=O)c3cc(NC(=O)c4cc(NC(=O)CCCNC(=O)c5nccn5C)cn4C)cn3C)cn2C)cn1C | 0.023 | –
C[C@@H]1C[C@H]2[C@@H]3CCC4=CC(=O)C=C[C@]4(C)[C@@]3(F)[C@@H](O)C[C@]2(C)[C@@]1(O)C(=O)CSCCNC(=S)NCCCN(C)CCCNC(=O)CCNC(=O)c1cc(NC(=O)c2cc(NC(=O)c3nccn3C)cn2C)cn1C | 0.012 | –
C[C@H]1C[C@@H]2[C@H]3CCC4=CC(=O)C=C[C@@]4(C)[C@]3(F)[C@H](O)C[C@@]2(C)[C@]1(O)C(=O)NCCNC(=O)c1cc(NC(=O)c2cc(NC(=O)c3cc(NC(=O)c4nccn4C)cn3C)cn2C)cn1C | 0.55 | –
C[C@H]1C[C@@H]2[C@H]3CCC4=CC(=O)C=C[C@@]4(C)[C@]3(F)[C@H](O)C[C@@]2(C)[C@]1(O)C(=O)CSCCNC(=S)NCCNC(=O)c1cc(NC(=O)c2cc(NC(=O)c3nccn3C)cn2C)cn1C | 0.014 | fold induction at 40 h, 6 µM [4]: 3400; EC50 [3]: 1.2 µM
C[C@H]1C[C@@H]2[C@H]3CCC4=CC(=O)C=C[C@@]4(C)[C@]3(F)[C@H](O)C[C@@]2(C)[C@]1(O)C(=O)CSCCNC(=S)NCCNC(=O)c1cc(NC(=O)c2cc(NC(=O)c3cc(NC(=O)c4nccn4C)cn3C)cn2C)cn1C | 0.026 | –
C[C@@H]1C[C@H]2[C@@H]3CCC4=CC(=O)C=C[C@]4(C)[C@@]3(F)[C@@H](O)C[C@]2(C)[C@@]1(O)C(=O)CSCCNC(=S)NCCCN(C)CCCNC(=O)CCNC(=O)c1cc(NC(=O)c2cc(NC(=O)c3cc(NC(=O)c4nccn4C)cn3C)cn2C)cn1C | 0.02 | –
CC(=O)NCCC(=O)NCCCN(C)CCCNC(=S)NCCSCC(=O)[C@@]1(O)[C@H](C)C[C@H]2[C@@H]3CCC4=CC(=O)C=C[C@]4(C)[C@@]3(F)[C@@H](O)C[C@@]21C | 0.0093 | EC50 [5]: 0.25 µM; fold induction at 40 h, 6 µM [4]: 600; fold induction at 40 h, 1 µM [6]: 1200
C[C@@H]1C[C@H]2[C@@H]3CCC4=CC(=O)C=C[C@]4(C)[C@@]3(F)[C@@H](O)C[C@]2(C)[C@@]1(O)C(=O)CSCCNC(=S)NCCCN(C)CCCNC(=O)CCNC(=O)c1cc(NC(=O)c2cc(NC(=O)c3cc(NC(=O)c4cc(NC(=O)CCCNC(=O)c5cc(NC(=O)c6cc(NC(=O)c7nccn7C)cn6C)cn5C)cn4C)cn3C)cn2C)cn1C | 0.02 | –
C[C@H]1C[C@@H]2[C@H]3CCC4=CC(=O)C=C[C@@]4(C)[C@]3(F)[C@H](O)C[C@@]2(C)[C@]1(O)C(=O)CSCCNC(=S)NCCNC(=O)c1cc(NC(=O)c2cncn2C)cn1C | 0.0057 | EC50 [3]: 0.75 µM
C[C@H]1C[C@@H]2[C@H]3CCC4=CC(=O)C=C[C@@]4(C)[C@]3(F)[C@H](O)C[C@@]2(C)[C@]1(O)C(=O)CSCCNC(=S)NCCNC(=O)c1cc(NC(=O)c2cc(NC(=O)c3cc(NC(=O)c4cc(NC(=O)CCCNC(=O)c5cc(NC(=O)c6cc(NC(=O)c7nccn7C)cn6C)cn5C)cn4C)cn3C)cn2C)cn1C | 0.021 | –
C[C@@H]1C[C@H]2[C@@H]3CCC4=CC(=O)C=C[C@]4(C)[C@@]3(F)[C@@H](O)C[C@]2(C)[C@@]1(O)C(=O)CSCCNC(=S)NCCCN(C)CCCNC(=O)CCNC(=O)c1cc(NC(=O)c2cc(NC(=O)c3cc(NC(=O)c4cc(NC(=O)CCCNC(=O)c5nccn5C)cn4C)cn3C)cn2C)cn1C | 0.016 | –
C[C@H]1C[C@@H]2[C@H]3CCC4=CC(=O)C=C[C@@]4(C)[C@]3(F)[C@H](O)C[C@@]2(C)[C@]1(O)C(=O)CSCCNC(=S)NCCNC(=O)c1cc(NC(=O)c2cc(NC(=O)c3cc(NC(=O)c4cc(NC(=O)CCCNC(=O)c5cc(NC(=O)c6cc(NC(=O)c7cc(NC(=O)c8nccn8C)cn7C)cn6C)cn5C)cn4C)cn3C)cn2C)cn1C | 0.027 | fold induction at 40 h, 6 µM [4]: 1500
C[C@H]1C[C@@H]2[C@H]3CCC4=CC(=O)C=C[C@@]4(C)[C@]3(F)[C@H](O)C[C@@]2(C)[C@]1(O)C(=O)NCCNC(=O)c1cc(NC(=O)c2cc(NC(=O)c3cc(NC(=O)c4cc(NC(=O)CCCNC(=O)c5cc(NC(=O)c6cc(NC(=O)c7cc(NC(=O)c8nccn8C)cn7C)cn6C)cn5C)cn4C)cn3C)cn2C)cn1C | 0.84 | –
C[C@H]1C[C@@H]2[C@H]3CCC4=CC(=O)C=C[C@@]4(C)[C@]3(F)[C@H](O)C[C@@]2(C)[C@]1(O)C(=O)CSCCNC(=S)NCCNC(=O)c1cc(NC(=O)c2cc(NC(=O)c3cc(NC(=O)c4cc(NC(=O)c5nccn5C)cn4C)cn3C)cn2C)cn1C | 0.034 | –
C[C@@H]1C[C@H]2[C@@H]3CCC4=CC(=O)C=C[C@]4(C)[C@@]3(F)[C@@H](O)C[C@]2(C)[C@@]1(O)C(=O)CSCCNC(=S)NCCCN(C)CCCNC(=O)CCNC(=O)c1cc(NC(=O)c2cc(NC(=O)c3cc(NC(=O)c4cc(NC(=O)CCCNC(=O)c5cc(NC(=O)c6cc(NC(=O)c7cc(NC(=O)c8nccn8C)cn7C)cn6C)cn5C)cn4C)cn3C)cn2C)cn1C | – | Kd [7]: 0.005 µM
C[C@@H]1C[C@H]2[C@@H]3CCC4=CC(=O)C=C[C@]4(C)[C@@]3(F)[C@@H](O)C[C@]2(C)[C@@]1(O)C(=O)CSCCNC(=S)NCCCN(C)CCCNC(=O)CCNC(=O)c1cc(NC(=O)c2cc(NC(=O)c3cc(NC(=O)c4cc(NC(=O)c5nccn5C)cn4C)cn3C)cn2C)cn1C | 0.016 | –
C[C@@H]1C[C@H]2[C@@H]3CCC4=CC(=O)C=C[C@]4(C)[C@@]3(F)[C@@H](O)C[C@]2(C)[C@@]1(O)C(N)=O [OXDEX] | – | EC50 [3]: 35 µM
